Laboratory results published in patent US20260217765A1, “NOVEL ANTIMICROBIAL PEPTIDE DESIGNED FROM DUCK-DERIVED ANTIMICROBIAL PEPTIDE ANDUSE THEREOF” (INDUSTRY-ACADEMIC COOPERATION FOUNDATION, CHOSUN UNIVERSITY, priority 2023, published 2026).
Peptide text beside a SMILES is read from it.

Tests used:
[1] = tested on: Acinetobacter baumannii KCTC 2508; type: cell-based; settings: KCTC 2508, 24 h
Protocol: (§1) Specifically, among the bacterial strains listed in Table 2, those known to form biofilms well (Acinetobacter baumannii KCTC 2508, Acinetobacter baumannii isolate 10, and isolate 14) were cultured in the appropriate media to the mid-log phase and diluted to a cell concentration of 5×10^4 cells/100 µL, followed by inoculation into microplates (SPL). Subsequently, the peptides prepared in <Example 1> were serially 10-fold diluted with 10 mM sodium phosphate buffer (pH 7.2), and 10 μL of each dilution was added to each well. The plates were then incubated at 37° C. for 24 hours. After completely removing the supernatant, the plates were fixed with 100% methanol for 15 minutes, stained with crystal violet staining solution for 1 hour, washed three times, and then the stain was solubilized with 95% ethanol. Absorbance was measured at 595 nm using a microplate reader to determine the MBIC values for each bacterial strain.

[2] = tested on: Acinetobacter baumannii_isolate 10; type: cell-based, Acinetobacter baumannii; settings: isolate 10, 24 h
Protocol: as §1

[3] = tested on: Acinetobacter baumannii_isolate 14; type: cell-based, Acinetobacter baumannii; settings: isolate 14, 24 h
Protocol: as §1

sheep red blood cells = type: cell-based
Protocol: To evaluate the cytotoxicity of the peptides prepared in <Example 1>, their hemolytic activity against red blood cells was measured. Hemolysis refers to the rupture of red blood cells with the release of hemoglobin into the surrounding fluid. The cytotoxicity of the novel peptides of the present disclosure was assessed by measuring their hemolytic activity against erythrocytes.
Specifically, sheep red blood cells were diluted with PBS (pH 7.0) to a final concentration of 8%. The peptides dCATH, dCATH-A1, dCATH-A2, dCATH-A3, dCATH-A4, dCATH-A5, dCATH-A6, and dCATH-A7 were each added to the wells at concentrations of 3.13, 6.25, 12.5, 25.0, 50.0, and 100.0 μM/well and reacted at 37° C. for 1 hour. Thereafter, the samples were centrifuged at 1, 000×g, and the absorbance of hemoglobin in the supernatant was measured at 414 nm. As a control for complete cell lysis, 1% Triton X-100 (Sigma, USA) was used and incubated under the same conditions. The absorbance of this sample was set to represent 100% hemolysis, and hemolytic activity (%) for each peptide was calculated using the following Equation 1.
In the above equation, Absorbance A is the absorbance at 414 nm of the reaction solution treated with each peptide, Absorbance B is the absorbance at 414 nm of the PBS-treated reaction solution, and Absorbance C is the absorbance at 414 nm of the reaction solution treated with 1% Triton X-100.

in vitro = type: cell-based; settings: human, HaCaT keratinocyte cells, Cell Viability
Protocol: To evaluate the cytotoxicity of the peptides prepared in <Example 1>, toxicity was measured using a human keratinocyte cell line (HaCaT cell line, Dr. N. E. Fusenig, Heidelberg, Germany).
Specifically, HaCaT cells cultured in DMEM medium containing 10% fetal bovine serum (FBS) were seeded at a density of 2×10^5 cells/well into a microtiter plate and incubated for 24 hours. Then, peptides dCATH, dCATH-A1, dCATH-A2, dCATH-A3, dCATH-A4, dCATH-A5, dCATH-A6, and dCATH-A7 were added to each well at concentrations of 3.13, 6.25, 12.5, 25.0, 50.0, and 100.0 μM/well, followed by incubation for 24 hours in a 5% CO2 incubator. After 24 hours, 100 μL of a reaction solution containing 0.5 mg/mL MTT (Thiazolyl Blue Tetrazolium Bromide) dissolved in phosphate-buffered saline (PBS) was added to each well and reacted for 4 hours. After removing the supernatant, 200 μL of DMSO (dimethyl sulfoxide) was added to dissolve the formed MTT crystals, and absorbance at 570 nm was measured to determine cell viability.

[4] = tested on: Acinetobacter baumannii KCTC 2508; type: cell-based; settings: various salt concentrations
Protocol: To determine whether the peptides prepared in <Example 1> retain antimicrobial activity under salt concentrations present in vivo, the minimal inhibitory concentration (MIC) of the peptides was measured under various salt concentrations. Specifically, among the bacterial strains listed in Table 2, Acinetobacter baumannii KCTC 2508 was cultured in suitable medium to the mid-log phase, then diluted to a concentration of 2×10^4 cells/100 μL and dispensed into a microtiter plate (Nunc, USA). The peptides prepared in <Example 1> were serially diluted two-fold under various salt concentration conditions and added to the wells, followed by incubation at 37° C. for 18 hours. Absorbance at 600 nm was measured using a microtiter plate reader (Merck ELISA reader, Germany) to determine the MIC values for each strain. The parent peptide dCATH was used as a control.

[5] = tested on: Acinetobacter baumannii membrane; assay: Flow cytometry, propidium iodide, action on bacterial membrane; type: cell-based; settings: peptide at twice the MIC, 37° C. 10 minutes
Protocol: To determine whether the peptides prepared in <Example 1> act on bacterial membranes, the parent peptide and the novel peptides dCATH-A1, dCATH-A2, dCATH-A3, dCATH-A4, dCATH-A5, dCATH-A6, and dCATH-A7 were analyzed using flow cytometry.
Specifically, Acinetobacter baumannii was treated with each peptide at twice the minimum inhibitory concentration (MIC), followed by incubation at 37° C. for 10 minutes. The supernatant was then removed by centrifugation at 10,000 rpm, and the bacterial cells were stained with propidium iodide (PI) at a concentration of 10 μg/mL at 4° C. for 30 minutes. Unbound PI was removed by centrifugation, and 1 mL of phosphate-buffered saline (PBS) was added to disperse any cell clumps. The effect of the peptides on the bacterial membrane was then assessed using a Beckman flow cytometer.

plasmid DNA (pRSETB) = assay: Binding to bacterial DNA, agarose gel electrophoresis; settings: 260 ng plasmid DNA, DNA/peptide ratios 1:1 to 1:4, 37° C. 10 minutes
Protocol: Accordingly, to further elucidate the mechanism by which these novel peptides exert antimicrobial activity, it was examined whether the novel peptides dCATH-A6 and dCATH-A7 bind to intracellular bacterial DNA using electrophoresis.
Specifically, 260 ng of plasmid DNA (pRSETB) was reacted with each peptide at various ratios (lanes 1 through […] represent DNA only, 1:1, 1:2, 1:3, and 1:4 DNA/peptide ratios, respectively) at 37° C. for 10 minutes. The samples were then subjected to electrophoresis on a 1% agarose gel, stained with ethidium bromide (EtBr), and visualized under UV light.

| antimicrobial activity (MIC) under salt conditions compared to the parent peptide dCATH [4] | binding to DNA (electrophoresis) (plasmid DNA (pRSETB)) | Structure (SMILES) | MBIC [1] [µM] | MBIC [2] [µM] | MBIC [3] [µM] | hemolytic activity at concentrations corresponding to antimicrobial activity (sheep red blood cells) | viability at 24 h, 3.13 µM (in vitro) [%] | viability at 24 h, 6.25 µM (in vitro) [%] | viability at 24 h, 12.5 µM (in vitro) [%] | viability at 24 h, 25 µM (in vitro) [%] | viability at 24 h, 50 µM (in vitro) [%] | viability at 24 h, 100 µM (in vitro) [%] | membrane damage in Acinetobacter baumannii (shift in PI fluorescence signal) [5] |
| --- | --- | --- | --- | --- | --- | --- | --- | --- | --- | --- | --- | --- | --- |
| lower MIC values than the control | did bind to DNA | CC[C@H](C)[C@H](NC(=O)[C@H](C)NC(=O)[C@H](CCCCN)NC(=O)[C@H](CCCCN)NC(=O)[C@@H](NC(=O)[C@H](CC(C)C)NC(=O)[C@H](CCC(N)=O)NC(=O)[C@H](C)NC(=O)[C@H](C)NC(=O)[C@H](CCCNC(=N)N)NC(=O)[C@@H](N)CCCCN)C(C)C)C(=O)N[C@@H](CCCCN)C(=O)N[C@@H](CCCCN)C(=O)N[C@@H](Cc1ccc(O)cc1)C(=O)N[C@@H](CCCNC(=N)N)C(=O)N[C@@H](C)C(=O)N[C@@H](Cc1c[nH]c2ccccc12)C(=O)N[C@@H](CCCCN)C(=O)N[C@@H](CCCNC(=N)N)C(=O)N[C@@H](CCCNC(=N)N)C(N)=O [dCATH-A6] (H-KRAAQLVKKAIKKYRAWKRR-NH2; N-terminus assumed) | 2 | 2 | 2 | no hemolytic activity | 98.9 | 100 | 94.7 | 98 | 97.8 | 92 | no damage to the bacterial membrane |
| lower MIC values than the control | did bind to DNA | CC[C@H](C)[C@H](NC(=O)[C@H](C)NC(=O)[C@H](CCCCN)NC(=O)[C@H](CCCCN)NC(=O)[C@@H](NC(=O)[C@H](CC(C)C)NC(=O)[C@H](CCC(N)=O)NC(=O)[C@H](C)NC(=O)[C@H](C)NC(=O)[C@H](CCCNC(=N)N)NC(=O)[C@@H](N)CCCCN)C(C)C)C(=O)N[C@@H](CCCCN)C(=O)N[C@@H](CCCCN)C(=O)N[C@@H](Cc1ccc(O)cc1)C(=O)N[C@@H](CCCNC(=N)N)C(=O)N[C@@H](C)C(=O)N[C@@H](Cc1c[nH]c2ccccc12)C(=O)N[C@@H](CCCCN)C(N)=O [dCATH-A7, KRAAQLVKKAIKKYRAWK] (H-KRAAQLVKKAIKKYRAWK-NH2; N-terminus assumed) | 2 | 2 | 1 | no hemolytic activity | 98 | 99.2 | 100 | 100 | 100 | 98.4 | no damage to the bacterial membrane |
